From ChEMBL document CHEMBL1133962, “Bicyclic anti-VZV nucleosides: Thieno analogues retain full antiviral activity” (Bioorg Med Chem Lett, 2001) come the findings set out here.

The structures appear in SMILES notation.

The test system of one experiment is HEL. The experiment is described as follows: Minimal cytotoxic concentration required to alter microscopically detectable cell (of human embryonic lung cells (HEL)) morphology. It counts as functional.
With `Nc1nc2c(ncn2COCCO)c(=O)[nH]1` [ACYCLOVIR], the MCC is more than 200 µM.

For `CCCCc1cc2cn([C@H]3C[C@H](O)[C@@H](CO)O3)c(=O)nc2s1`, the MCC is not below 100 µM.

In the case of `CCCCCCCCCc1cc2cn([C@H]3C[C@H](O)[C@@H](CO)O3)c(=O)nc2s1`, the MCC is more than 20 µM.

With `CCCCCCCCCCc1cc2cn([C@H]3C[C@H](O)[C@@H](CO)O3)c(=O)nc2s1`, the MCC is 20 µM.

For the compound `CCCCCCCCc1cc2cn([C@H]3C[C@H](O)[C@@H](CO)O3)c(=O)nc2s1`, the MCC was determined as 20 µM.

`CCCCCCc1cc2cn([C@H]3C[C@H](O)[C@@H](CO)O3)c(=O)nc2s1` yielded an MCC of 125 µM.

For the compound `CCCCCCCCCCCCc1cc2cn([C@H]3C[C@H](O)[C@@H](CO)O3)c(=O)nc2s1`, the MCC was found to be 12 µM.

For the compound `CCCCCCCCCCc1cc2cn([C@H]3C[C@H](O)[C@@H](CO)O3)c(=O)nc2o1`, the MCC was more than 50 µM.

The next experiment deals with HEL. As to the kind of experiment: Antiviral activity was measured as effective concentration required to reduce Varicella Zoster virus (OKA)-induced plaque formation in human embryonic lung cells. It counts as functional, cell-based.
In general, EC50 refers to the midpoint of the concentration-response curve. `Nc1nc2c(ncn2COCCO)c(=O)[nH]1` [ACYCLOVIR] displayed an EC50 of 1100 nM.

For the compound `CCCCc1cc2cn([C@H]3C[C@H](O)[C@@H](CO)O3)c(=O)nc2s1`, the EC50 is 160 nM.

`CCCCCCCCCc1cc2cn([C@H]3C[C@H](O)[C@@H](CO)O3)c(=O)nc2s1`: a half-maximal effect (EC50) was put at 10 nM.

`CCCCCCCCCCc1cc2cn([C@H]3C[C@H](O)[C@@H](CO)O3)c(=O)nc2s1` gave an EC50 of 30 nM.

For the compound `CCCCCCCCc1cc2cn([C@H]3C[C@H](O)[C@@H](CO)O3)c(=O)nc2s1`, the EC50 was 2 nM.

With `CCCCCCc1cc2cn([C@H]3C[C@H](O)[C@@H](CO)O3)c(=O)nc2s1`, the EC50 turned out to be 140 nM.

In the case of `CCCCCCCCCCCCc1cc2cn([C@H]3C[C@H](O)[C@@H](CO)O3)c(=O)nc2s1`, the EC50 was found to be 200 nM.

Compound `CCCCCCCCCCc1cc2cn([C@H]3C[C@H](O)[C@@H](CO)O3)c(=O)nc2o1` returned an EC50 of 15 nM.

The next experiment deals with HEL. As to the kind of experiment: Cytotoxic concentration required to inhibit growth of human embryonic lung cells (HEL). It counts as functional.
Broadly, the CC50 is the concentration that lowers cell viability or growth by half. Lower therefore signals greater toxicity to the cells. `Nc1nc2c(ncn2COCCO)c(=O)[nH]1` [ACYCLOVIR]: the CC50 was more than 400000 nM.

In turn, `CCCCc1cc2cn([C@H]3C[C@H](O)[C@@H](CO)O3)c(=O)nc2s1` yielded a CC50 of more than 200000 nM.

For `CCCCCCCCCc1cc2cn([C@H]3C[C@H](O)[C@@H](CO)O3)c(=O)nc2s1`, the CC50 was more than 20000 nM.

Consider `CCCCCCCCCCc1cc2cn([C@H]3C[C@H](O)[C@@H](CO)O3)c(=O)nc2s1`, for which the midpoint of cytotoxicity, the CC50, lay at 54000 nM.

Take `CCCCCCCCc1cc2cn([C@H]3C[C@H](O)[C@@H](CO)O3)c(=O)nc2s1`: the midpoint of cytotoxicity, the CC50, lay at 53000 nM.

Compound `CCCCCCc1cc2cn([C@H]3C[C@H](O)[C@@H](CO)O3)c(=O)nc2s1` came in with a CC50 of more than 200000 nM.

For `CCCCCCCCCCCCc1cc2cn([C@H]3C[C@H](O)[C@@H](CO)O3)c(=O)nc2s1`, the CC50 stood at 49000 nM.

With `CCCCCCCCCCc1cc2cn([C@H]3C[C@H](O)[C@@H](CO)O3)c(=O)nc2o1`, the CC50 was more than 50000 nM.

In a further experiment the test system is HEL. As to the kind of experiment: Antiviral activity was measured as effective concentration required to reduce thymidine kinase-deficient. Varicella Zoster virus (07/1)-induced plaque formation in human embryonic lung cells. It counts as functional, cell-based.
For `Nc1nc2c(ncn2COCCO)c(=O)[nH]1` [ACYCLOVIR], the response was half-maximal at 40000 nM (EC50).

`CCCCc1cc2cn([C@H]3C[C@H](O)[C@@H](CO)O3)c(=O)nc2s1` displayed an EC50 not below 200000 nM.

For the compound `CCCCCCCCCc1cc2cn([C@H]3C[C@H](O)[C@@H](CO)O3)c(=O)nc2s1`, the EC50 is more than 20000 nM.

With `CCCCCCCCCCc1cc2cn([C@H]3C[C@H](O)[C@@H](CO)O3)c(=O)nc2s1`, the EC50 is more than 5000 nM.

As for `CCCCCCCCc1cc2cn([C@H]3C[C@H](O)[C@@H](CO)O3)c(=O)nc2s1`, the EC50 was not below 5000 nM.

Regarding `CCCCCCc1cc2cn([C@H]3C[C@H](O)[C@@H](CO)O3)c(=O)nc2s1`, the EC50 is not below 50000 nM.

Take `CCCCCCCCCCCCc1cc2cn([C@H]3C[C@H](O)[C@@H](CO)O3)c(=O)nc2s1`: the EC50 was more than 5000 nM.

In the case of `CCCCCCCCCCc1cc2cn([C@H]3C[C@H](O)[C@@H](CO)O3)c(=O)nc2o1`, the EC50 is more than 50000 nM.

In a further experiment the test system is HEL. The experiment is described as follows: Antiviral activity was measured as effective concentration required to reduce Varicella Zoster virus (YS)-induced plaque formation in human embryonic lung cells. It counts as functional, cell-based.
Consider `Nc1nc2c(ncn2COCCO)c(=O)[nH]1` [ACYCLOVIR], for which the EC50 was 1500 nM.

Compound `CCCCc1cc2cn([C@H]3C[C@H](O)[C@@H](CO)O3)c(=O)nc2s1` registered a concentration for a half-maximal effect (EC50) of 150 nM.

As for `CCCCCCCCCc1cc2cn([C@H]3C[C@H](O)[C@@H](CO)O3)c(=O)nc2s1`, the EC50 amounted to 10 nM.

`CCCCCCCCCCc1cc2cn([C@H]3C[C@H](O)[C@@H](CO)O3)c(=O)nc2s1` came in with an EC50 of 60 nM.

The compound `CCCCCCCCc1cc2cn([C@H]3C[C@H](O)[C@@H](CO)O3)c(=O)nc2s1` had an EC50 of 5 nM.

As to `CCCCCCc1cc2cn([C@H]3C[C@H](O)[C@@H](CO)O3)c(=O)nc2s1`, the midpoint of the response, the EC50, lay at 140 nM.

`CCCCCCCCCCCCc1cc2cn([C@H]3C[C@H](O)[C@@H](CO)O3)c(=O)nc2s1` had a 50% effective concentration (EC50) of 300 nM.

Consider `CCCCCCCCCCc1cc2cn([C@H]3C[C@H](O)[C@@H](CO)O3)c(=O)nc2o1`, for which a half-maximal response (EC50) required 8 nM.

The test system of the next experiment is HEL. As to the kind of experiment: Antiviral activity was measured as effective concentration required to reduce thymidine kinase-deficient. Varicella Zoster virus (YS/R)-induced plaque formation in human embryonic lung cells. It counts as functional, cell-based.
`Nc1nc2c(ncn2COCCO)c(=O)[nH]1` [ACYCLOVIR] yielded an EC50 of 44000 nM.

`CCCCc1cc2cn([C@H]3C[C@H](O)[C@@H](CO)O3)c(=O)nc2s1` had an EC50 of 153000 nM.

With `CCCCCCCCCc1cc2cn([C@H]3C[C@H](O)[C@@H](CO)O3)c(=O)nc2s1`, the EC50 was more than 20000 nM.

Consider `CCCCCCCCCCc1cc2cn([C@H]3C[C@H](O)[C@@H](CO)O3)c(=O)nc2s1`, for which the EC50 is more than 5000 nM.

On to `CCCCCCCCc1cc2cn([C@H]3C[C@H](O)[C@@H](CO)O3)c(=O)nc2s1`, for which the EC50 was more than 5000 nM.

`CCCCCCc1cc2cn([C@H]3C[C@H](O)[C@@H](CO)O3)c(=O)nc2s1` registered an EC50 not below 50000 nM.

As for `CCCCCCCCCCCCc1cc2cn([C@H]3C[C@H](O)[C@@H](CO)O3)c(=O)nc2s1`, the EC50 was more than 5000 nM.

Compound `CCCCCCCCCCc1cc2cn([C@H]3C[C@H](O)[C@@H](CO)O3)c(=O)nc2o1` came in with an EC50 of more than 50000 nM.
